Assay results reported in ChEMBL document CHEMBL5257112, “Discovery of 4-oxo-4,5-dihydropyrazolo[1,5-a]quinoxaline-7-carboxamide derivatives as PI3Kα inhibitors via virtual screening and docking-based structure optimization” (Bioorg Med Chem, 2023).

Columns and labels:
[1] = molecular target: Phosphatidylinositol 4,5-bisphosphate 3-kinase catalytic subunit alpha isoform (Homo sapiens, UniProt P42336); test: Inhibition of PI3Kalpha (unknown origin) using PIP2:PS as substrate preincubated for 1 hr followed by ATP and substate addition and measured after 1 hr by ADP-glo reagent based assay
[2] = molecular target: T1, Phosphatidylinositol 4,5-bisphosphate 3-kinase catalytic subunit delta isoform (Homo sapiens, UniProt O00329); test: Inhibition of PI3Kdelta (unknown origin) using PIP2:PS as substrate preincubated for 1 hr followed by ATP and substate addition and measured after 1 hr by ADP-glo reagent based assay
T1 sequence (O00329 whole entry): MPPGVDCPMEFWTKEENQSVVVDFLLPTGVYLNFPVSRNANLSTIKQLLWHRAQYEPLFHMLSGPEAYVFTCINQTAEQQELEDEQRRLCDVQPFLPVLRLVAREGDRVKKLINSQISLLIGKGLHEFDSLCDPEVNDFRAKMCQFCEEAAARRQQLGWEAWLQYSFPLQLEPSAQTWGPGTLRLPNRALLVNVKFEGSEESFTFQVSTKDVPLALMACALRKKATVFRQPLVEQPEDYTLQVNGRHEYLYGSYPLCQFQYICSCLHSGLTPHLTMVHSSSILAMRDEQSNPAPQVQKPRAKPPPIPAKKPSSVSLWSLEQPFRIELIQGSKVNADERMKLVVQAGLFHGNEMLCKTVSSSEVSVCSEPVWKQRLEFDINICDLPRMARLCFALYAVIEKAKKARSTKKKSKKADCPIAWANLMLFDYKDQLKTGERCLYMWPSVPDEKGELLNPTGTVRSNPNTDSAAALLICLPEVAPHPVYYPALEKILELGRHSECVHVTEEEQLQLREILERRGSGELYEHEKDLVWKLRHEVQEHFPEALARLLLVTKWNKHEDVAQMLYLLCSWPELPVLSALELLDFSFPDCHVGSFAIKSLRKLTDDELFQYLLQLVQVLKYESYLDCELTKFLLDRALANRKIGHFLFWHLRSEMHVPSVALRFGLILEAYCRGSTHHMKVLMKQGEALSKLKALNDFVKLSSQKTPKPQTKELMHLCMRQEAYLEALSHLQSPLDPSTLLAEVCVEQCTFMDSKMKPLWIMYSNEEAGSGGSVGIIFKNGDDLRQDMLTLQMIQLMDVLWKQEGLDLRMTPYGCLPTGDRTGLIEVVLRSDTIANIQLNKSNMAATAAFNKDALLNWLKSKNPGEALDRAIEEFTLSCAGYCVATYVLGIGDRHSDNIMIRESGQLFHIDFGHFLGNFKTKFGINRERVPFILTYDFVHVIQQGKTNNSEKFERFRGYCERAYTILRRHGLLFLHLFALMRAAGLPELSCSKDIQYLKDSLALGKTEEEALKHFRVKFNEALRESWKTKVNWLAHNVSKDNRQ

[3] = molecular target: Phosphatidylinositol 4,5-bisphosphate 3-kinase catalytic subunit beta isoform (Homo sapiens, UniProt P42338); test: Inhibition of PI3Kbeta (unknown origin) using PIP2:PS as substrate preincubated for 1 hr followed by ATP and substate addition and measured after 1 hr by ADP-glo reagent based assay
[4] = molecular target: Phosphatidylinositol 4,5-bisphosphate 3-kinase catalytic subunit gamma isoform (Homo sapiens, UniProt P48736); test: Inhibition of PI3Kgamma (unknown origin) using PIP2:PS as substrate preincubated for 1 hr followed by ATP and substate addition and measured after 1 hr by ADP-glo reagent based assay
Kasumi 1 = test: Antiproliferative activity against human Kasumi 1 cells assessed as cell growth inhibition incubated for 72 hrs by MTT assay; type: functional, cell-based; conditions: Kasumi 1, 72 h
[5] = Cmax in mouse at 5 mg/kg, po measured after 24 hrs by LC/MS/MS analysis; type: ADME, organism-based; parameters: time 24 hrs, dose 5 mg/kg, route po; conditions: in vivo
[6] = Cmax in mouse at 1 mg/kg, iv measured after 24 hrs by LC/MS/MS analysis; type: ADME, organism-based; parameters: time 24 hrs, dose 1 mg/kg, route iv; conditions: in vivo
[7] = AUC(0 to t) in mouse at 5 mg/kg, po measured after 24 hrs by LC/MS/MS analysis; type: ADME, organism-based; parameters: dose 5 mg/kg, time 24 hrs, route po; conditions: in vivo
[8] = AUC(0 to t) in mouse at 1 mg/kg, iv measured after 24 hrs by LC/MS/MS analysis; type: ADME, organism-based; parameters: dose 1 mg/kg, time 24 hrs, route iv; conditions: in vivo
T47D = test: Antiproliferative activity against human T47D cells expressing PIK3CA mutant assessed as cell growth inhibition incubated for 72 hrs by MTT assay; type: functional, cell-based
[9] = Half life in mouse at 5 mg/kg, po measured after 24 hrs by LC/MS/MS analysis; type: ADME, organism-based; conditions: in vivo
[10] = Half life in mouse at 1 mg/kg, iv measured after 24 hrs by LC/MS/MS analysis; type: ADME, organism-based; conditions: in vivo
[11] = Volume of distribution in mouse at 5 mg/kg, po measured after 24 hrs by LC/MS/MS analysis; type: ADME, organism-based; conditions: in vivo
[12] = Volume of distribution in mouse at 1 mg/kg, iv measured after 24 hrs by LC/MS/MS analysis; type: ADME, organism-based; conditions: in vivo
[13] = Clearance in mouse at 5 mg/kg, po measured after 24 hrs by LC/MS/MS analysis; type: ADME, organism-based; conditions: in vivo
[14] = Clearance in mouse at 1 mg/kg, iv measured after 24 hrs by LC/MS/MS analysis; type: ADME, organism-based; conditions: in vivo
[15] = Oral bioavailability in mouse at 5 mg/kg measured after 24 hrs by LC/MS/MS analysis; type: ADME, organism-based; conditions: in vivo
[16] = Inhibition of PI3K/AKT/mTOR signaling pathway in human T47D cells assessed as reduction in Akt phosphorylation at S473 residue preincubated for 1 hr followed by recombinant human insulin-like growth factor 1 stimulation by Western blot analysis; type: cell-based; conditions: dose 0.01-10 µM

Chain of Phosphatidylinositol 4,5-bisphosphate 3-kinase catalytic subunit beta isoform (P42338 whole entry, canonical isoform): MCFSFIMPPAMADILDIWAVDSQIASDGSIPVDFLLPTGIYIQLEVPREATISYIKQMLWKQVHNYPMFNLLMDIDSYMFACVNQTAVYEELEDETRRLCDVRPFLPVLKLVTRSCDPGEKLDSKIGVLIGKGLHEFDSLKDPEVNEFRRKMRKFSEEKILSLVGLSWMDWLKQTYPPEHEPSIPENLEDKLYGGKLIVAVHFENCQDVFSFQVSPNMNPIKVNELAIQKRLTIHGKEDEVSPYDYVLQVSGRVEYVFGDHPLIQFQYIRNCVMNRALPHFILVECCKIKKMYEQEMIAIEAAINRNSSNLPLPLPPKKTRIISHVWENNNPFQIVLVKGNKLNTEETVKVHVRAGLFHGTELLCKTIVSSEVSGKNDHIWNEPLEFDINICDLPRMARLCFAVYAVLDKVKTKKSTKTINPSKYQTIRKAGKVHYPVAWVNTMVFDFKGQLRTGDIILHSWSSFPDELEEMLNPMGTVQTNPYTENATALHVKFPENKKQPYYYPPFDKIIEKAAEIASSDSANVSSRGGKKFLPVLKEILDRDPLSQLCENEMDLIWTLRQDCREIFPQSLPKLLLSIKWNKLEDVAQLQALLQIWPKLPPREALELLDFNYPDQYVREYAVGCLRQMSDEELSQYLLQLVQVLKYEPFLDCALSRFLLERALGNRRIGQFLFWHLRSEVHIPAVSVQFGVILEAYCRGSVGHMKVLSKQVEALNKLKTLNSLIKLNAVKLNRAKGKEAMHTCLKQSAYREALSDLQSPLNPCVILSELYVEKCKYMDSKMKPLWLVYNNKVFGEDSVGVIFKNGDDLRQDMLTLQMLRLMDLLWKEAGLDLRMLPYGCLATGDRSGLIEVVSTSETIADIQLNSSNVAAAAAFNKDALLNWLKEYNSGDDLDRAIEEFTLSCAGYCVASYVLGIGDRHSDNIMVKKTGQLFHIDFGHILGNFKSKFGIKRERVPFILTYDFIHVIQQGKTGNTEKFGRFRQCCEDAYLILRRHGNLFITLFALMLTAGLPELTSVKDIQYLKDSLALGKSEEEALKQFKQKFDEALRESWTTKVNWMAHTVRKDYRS
Chain of Phosphatidylinositol 4,5-bisphosphate 3-kinase catalytic subunit alpha isoform (P42336 whole entry, canonical isoform): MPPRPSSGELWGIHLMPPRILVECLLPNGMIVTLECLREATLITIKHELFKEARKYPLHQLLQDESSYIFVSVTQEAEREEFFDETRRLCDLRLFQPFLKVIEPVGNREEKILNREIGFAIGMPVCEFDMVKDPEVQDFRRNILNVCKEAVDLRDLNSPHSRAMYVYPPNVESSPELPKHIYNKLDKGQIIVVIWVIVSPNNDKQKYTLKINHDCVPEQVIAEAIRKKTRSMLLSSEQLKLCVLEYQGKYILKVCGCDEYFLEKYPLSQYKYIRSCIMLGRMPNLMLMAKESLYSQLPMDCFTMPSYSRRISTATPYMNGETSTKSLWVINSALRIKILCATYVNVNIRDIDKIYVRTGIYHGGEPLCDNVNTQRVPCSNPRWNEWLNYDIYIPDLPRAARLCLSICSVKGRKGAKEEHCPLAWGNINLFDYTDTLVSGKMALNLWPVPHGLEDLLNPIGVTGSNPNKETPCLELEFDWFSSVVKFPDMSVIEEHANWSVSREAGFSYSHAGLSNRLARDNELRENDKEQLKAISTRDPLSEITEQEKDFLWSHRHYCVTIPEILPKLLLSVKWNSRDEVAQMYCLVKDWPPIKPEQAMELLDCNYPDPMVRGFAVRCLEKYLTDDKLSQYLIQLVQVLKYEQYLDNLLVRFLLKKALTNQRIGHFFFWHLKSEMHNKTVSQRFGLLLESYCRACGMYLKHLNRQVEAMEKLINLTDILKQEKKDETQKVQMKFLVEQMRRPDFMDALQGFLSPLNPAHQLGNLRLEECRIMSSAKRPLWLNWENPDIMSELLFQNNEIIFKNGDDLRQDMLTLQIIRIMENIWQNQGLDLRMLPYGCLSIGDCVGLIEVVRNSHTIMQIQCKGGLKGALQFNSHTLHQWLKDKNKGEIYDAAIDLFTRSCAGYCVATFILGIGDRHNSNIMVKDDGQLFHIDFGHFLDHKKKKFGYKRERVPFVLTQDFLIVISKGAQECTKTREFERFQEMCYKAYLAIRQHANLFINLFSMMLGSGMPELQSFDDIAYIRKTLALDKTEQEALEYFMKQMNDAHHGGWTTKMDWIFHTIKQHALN
Chain of Phosphatidylinositol 4,5-bisphosphate 3-kinase catalytic subunit gamma isoform (P48736 whole entry, canonical isoform): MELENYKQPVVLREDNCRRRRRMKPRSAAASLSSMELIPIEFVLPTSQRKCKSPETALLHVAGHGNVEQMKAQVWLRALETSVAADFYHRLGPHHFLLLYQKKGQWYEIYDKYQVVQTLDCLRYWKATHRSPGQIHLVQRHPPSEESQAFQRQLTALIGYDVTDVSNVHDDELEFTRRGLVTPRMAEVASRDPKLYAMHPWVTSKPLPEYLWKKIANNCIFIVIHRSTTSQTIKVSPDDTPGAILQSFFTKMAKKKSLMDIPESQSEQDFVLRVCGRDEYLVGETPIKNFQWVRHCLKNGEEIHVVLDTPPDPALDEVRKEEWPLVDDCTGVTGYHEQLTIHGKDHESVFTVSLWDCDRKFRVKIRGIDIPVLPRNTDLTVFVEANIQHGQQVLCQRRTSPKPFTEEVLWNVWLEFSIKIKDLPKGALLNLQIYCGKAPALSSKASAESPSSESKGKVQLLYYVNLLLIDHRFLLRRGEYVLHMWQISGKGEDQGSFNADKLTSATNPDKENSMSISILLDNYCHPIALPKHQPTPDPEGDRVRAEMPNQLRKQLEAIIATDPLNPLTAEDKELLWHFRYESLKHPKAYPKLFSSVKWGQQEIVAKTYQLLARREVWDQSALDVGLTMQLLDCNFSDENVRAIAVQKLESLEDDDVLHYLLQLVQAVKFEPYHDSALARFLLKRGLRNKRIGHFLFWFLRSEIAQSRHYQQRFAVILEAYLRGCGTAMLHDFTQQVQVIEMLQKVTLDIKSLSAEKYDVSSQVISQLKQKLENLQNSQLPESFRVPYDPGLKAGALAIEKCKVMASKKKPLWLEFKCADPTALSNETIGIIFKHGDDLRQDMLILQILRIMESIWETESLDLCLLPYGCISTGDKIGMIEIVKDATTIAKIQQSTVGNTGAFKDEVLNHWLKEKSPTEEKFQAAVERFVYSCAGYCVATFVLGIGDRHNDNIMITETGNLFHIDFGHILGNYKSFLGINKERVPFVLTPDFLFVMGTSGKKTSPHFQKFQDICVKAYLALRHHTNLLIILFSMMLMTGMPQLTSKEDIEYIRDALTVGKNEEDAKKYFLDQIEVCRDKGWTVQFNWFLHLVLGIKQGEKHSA

Row | IC50 [1] [µM] | SMILES | also measured
1 | > 20 | CCn1c(=O)c2ccnn2c2cc(NC)c(C(=O)NCc3cccnc3)cc21 | IC50 [2]: > 20 µM; IC50 [3]: 4.89 µM; IC50 [4]: > 20 µM
2 | > 20 | CCn1c(=O)c2cccn2c2ccc(C(=O)NCc3cccnc3)cc21 | 
3 | 6.43 | CCNC(=O)c1ccc2c(c1)n(CCOC)c(=O)c1ccnn12 | 
4 | 3.61 | CCNC(=O)c1ccc2c(c1)n(Cc1ccccc1)c(=O)c1ccnn12 | 
5 | 4.18 | CCn1c(=O)c2ccnn2c2ccc(C(=O)NCCCN3CCOCC3)cc21 | 
6 | 10.9 | CCn1c(=O)c2ccnn2c2ccc(C(=O)NCCN3CCOCC3)cc21 | 
7 | > 20 | CC(C)(C)c1ccc(Cn2c(=O)c3ccnn3c3ccc(C(=O)NCc4cccnc4)cc32)cc1 | 
8 | 10.3 | O=C(NCCN1CCOCC1)c1ccc2c(c1)n(Cc1ccccc1)c(=O)c1ccnn12 | 
9 | > 20 | CN1CCC(N2CCN(C(=O)c3ccc4c(c3)[nH]c(=O)c3ccnn34)CC2)CC1 | 
10 | 4.76 | CCn1c(=O)c2ccnn2c2ccc(C(=O)NCc3cnccn3)cc21 | 
11 | 2.65 | O=C(NCc1cccnc1)c1ccc2c(c1)n(CC1CC1)c(=O)c1ccnn12 | 
12 | 11.4 | CCn1c(=O)c2cc(C)nn2c2ccc(C(=O)NCc3cccnc3)cc21 | 
13 | 9.62 | O=C(NCCN1CCOCC1)c1ccc2c(c1)n(Cc1ccc(F)cc1)c(=O)c1ccnn12 | 
14 | 13.9 | CCn1c(=O)c2ccnn2c2ccc(C(=O)NCCc3cccnc3)cc21 | 
15 | > 20 | CS(=O)(=O)c1ccc(Cn2c(=O)c3ccnn3c3ccc(C(=O)NCc4cccnc4)cc32)cc1 | 
16 | > 20 | O=C(NCc1cccnc1)c1ccc2c(c1)n(Cc1ccc(OC(F)(F)F)cc1)c(=O)c1ccnn12 | 
17 | > 20 | CCN1C(=O)N2CCN=C2c2ccc(C(=O)NCc3cccnc3)cc21 | 
18 | > 20 | CCN1C(=O)N2CC(C)(C)CN=C2c2ccc(C(=O)NCc3cccnc3)cc21 | 
19 | > 20 | CCn1c(=O)c2ccnn2c2cc(NC(C)=O)c(C(=O)NCc3cncnc3)cc21 | IC50 [2]: > 20 µM; IC50 [3]: > 20 µM; IC50 [4]: > 20 µM
20 | > 20 | CCn1c(=O)c2ccnn2c2ccc(C(=O)N3CCN(c4ccccc4)CC3)cc21 | 
21 | 1.59 | CCn1c(=O)c2ccnn2c2ccc(C(=O)NCc3cncnc3)cc21 | 
22 | 0.87 | CCn1c(=O)c2ccnn2c2cc(N)c(C(=O)NCc3cccnc3)cc21 | IC50 [2]: 5.74 µM; IC50 [3]: 0.72 µM; IC50 [4]: 1.4 µM; IC50 (Kasumi 1): 4.38 µM; Cmax [5]: < 50 ng/mL; Cmax [6]: < 50 ng/mL; AUC(0-t) at 24 h [7]: < 100 ng·h/mL; AUC(0-t) at 24 h [8]: < 100 ng·h/mL
23 | 9.3 | CCNC(=O)c1ccc2c(c1)n(CC)c(=O)c1ccnn12 | 
24 | > 20 | CCn1c(=O)c2ccnn2c2cc(N(C)C)c(C(=O)NCc3cccnc3)cc21 | IC50 [2]: > 20 µM; IC50 [3]: 15 µM; IC50 [4]: > 20 µM
25 | > 20 | O=C(c1ccc2c(c1)[nH]c(=O)c1ccnn12)N1CCN(C2CCCC2)CC1 | 

Row | IC50 [1] [µM] | SMILES | also measured
26 | > 20 | CCN1C(=O)N2CCCN=C2c2ccc(C(=O)NCc3cccnc3)cc21 | 
27 | 2.65 | CCn1c(=O)c2ccnn2c2ccc(C(=O)NCc3cncc(C)c3)cc21 | 
28 | 3.52 | CCn1c(=O)c2ccnn2c2ccc(C(=O)NCc3cnccc3C)cc21 | 
29 | 3.52 | CCn1c(=O)c2ccnn2c2ccc(C(=O)NCc3cccnc3)cc21 | 
30 | 12.3 | Cn1c(=O)c2ccnn2c2ccc(C(=O)NCCN3CCOCC3)cc21 | 
31 | 2.86 | CCn1c(=O)c2ccnn2c2ccc(C(=O)NCc3ccncc3)cc21 | 
32 | > 20 | CCN1C(=O)[C@@H]2CCCN2c2ccc(C(=O)NCc3cccnc3)cc21 | 
33 |  | Cc1nc(NC(=O)N2CCC[C@H]2C(N)=O)sc1-c1ccnc(C(C)(C)C(F)(F)F)c1 [ALPELISIB] | IC50 (Kasumi 1): 0.44 µM; IC50 (T47D): 0.1 µM
34 | 5.25 | CCNC(=O)c1ccc2c(c1)n(CCN1CCCCC1)c(=O)c1ccnn12 | 
35 | 11 | CNC(=O)c1ccc2c(c1)n(CCCN(C)C1CCCCC1)c(=O)c1ccnn12 | 
36 | 0.24 | CCn1c(=O)c2ccnn2c2cc(N)c(C(=O)NCc3cncnc3)cc21 | IC50 [2]: 4.1 µM; IC50 [3]: > 10 µM; IC50 [4]: 0.83 µM; IC50 (Kasumi 1): 1.64 µM; IC50 (T47D): 1.82 µM; half-life [9]: 4.97 h; half-life [10]: 2.52 h; Cmax [5]: 863 ng/mL; Cmax [6]: 567 ng/mL; AUC(0-t) at 24 h [7]: 3290 ng·h/mL; AUC(0-t) at 24 h [8]: 717 ng·h/mL; Vd [11]: 6.36 L/kg; Vd [12]: 3.13 L/kg; CL/F [13]: 15.7 mL/min/kg; clearance [14]: 20.5 mL/min/kg; bioavailability [15]: 91.8%; inhibition [16]: Dose-Dependent Effect
37 | > 20 | CCN1C(=O)[C@H]2CCCN2c2ccc(C(=O)NCc3cccnc3)cc21 | 
38 | 3.62 | CCn1c(=O)c2ccnn2c2ccc(C(=O)NCc3ccc(C)nc3)cc21 | 
39 | 5.47 | CCn1c(=O)c2ccnn2c2ccc(C(=O)NCc3cnn(C)c3)cc21 | 
40 | 2 | CCCCn1c(=O)c2ccnn2c2ccc(C(=O)NCc3cccnc3)cc21 | 
41 | 2.86 | CCn1c(=O)c2ccnn2c2ccc(C(=O)NCc3ccccn3)cc21 | 
42 | > 20 | CCN1C(=O)C2CCCCN2c2ccc(C(=O)NCc3cccnc3)cc21 (centres undefined) | 
43 | > 20 | CCn1c(=O)c2ccnn2c2ccc(C(=O)N3CCN(C)CC3)cc21 | 
44 | 3.63 | CCn1c(=O)c2cnc(C)n2c2ccc(C(=O)NCc3cccnc3)cc21 | 
45 | > 20 | O=C(NCc1cccnc1)c1ccc2c(c1)n(Cc1ccc(C(F)(F)F)cc1)c(=O)c1ccnn12 | 
46 | > 20 | CCn1c(=O)c2cc(C(C)C)nn2c2ccc(C(=O)NCc3cccnc3)cc21 | 
47 | > 20 | CCn1c(=O)c2nccn2c2ccc(C(=O)NCc3cccnc3)cc21 | 
48 | 4.26 | CCNC(=O)c1ccc2c(c1)n(CCCN(C)C)c(=O)c1ccnn12 | 
49 | 4.51 | CCn1c(=O)c2ccnn2c2ccc(C(=O)NCc3cccnc3C)cc21 | 
